Holding throughout (assay): relative viability (nuclei count vs DMSO), 5 days (fraction); higher = more cells survive
Compound in the assay “VX-702 + Bortezomib”: NC(=O)c1ccc(N(C(N)=O)c2c(F)cccc2F)nc1-c1ccc(F)cc1F [VX-702] + CC(C)C[C@H](NC(=O)[C@H](Cc1ccccc1)NC(=O)c1cnccn1)B(O)O [Bortezomib] (partner 0.002 µM)
An outline of the steps:
(§1)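 Relative viability equals treated-well nuclei counts divided by vehicle-well nuclei counts. Counts came from 4× images of lung cancer cell lines grown in 1536-well plates for 5 days after pin-tool dosing on the day after seeding. Dosing used one drug alone or a fixed anchor-drug dose plus five library-drug doses (not always all listed) in √10 steps, and values are medians of duplicate plates.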

Compound in the assay “Dabrafenib + Tozasertib”: CC(C)(C)c1nc(-c2cccc(NS(=O)(=O)c3c(F)cccc3F)c2F)c(-c2ccnc(N)n2)s1 [Dabrafenib] + Cc1cc(Nc2cc(N3CCN(C)CC3)nc(Sc3ccc(NC(=O)C4CC4)cc3)n2)n[nH]1 [Tozasertib] (partner 0.1 µM)
In a few lines: as §1

Compound in the assay “VX-702 + Foretinib”: NC(=O)c1ccc(N(C(N)=O)c2c(F)cccc2F)nc1-c1ccc(F)cc1F [VX-702] + COc1cc2c(Oc3ccc(NC(=O)C4(C(=O)Nc5ccc(F)cc5)CC4)cc3F)ccnc2cc1OCCCN1CCOCC1 [Foretinib] (partner 0.25 µM)
An outline of the steps:
as §1

Compound in the assay “VX-702 + Linsitinib”: NC(=O)c1ccc(N(C(N)=O)c2c(F)cccc2F)nc1-c1ccc(F)cc1F [VX-702] + C[C@]1(O)C[C@@H](c2nc(-c3ccc4ccc(-c5ccccc5)nc4c3)c3c(N)nccn32)C1 [Linsitinib] (partner 1 µM)
In a few lines: as §1

This note sets out measurements from the supplement of paper PMC10307832.

As to NCI-H838, the relative viability with VX-702 + Bortezomib (first compound 0.02 µM) came to 0.857; in the assay with VX-702 + Bortezomib (first compound 0.2 µM) it was 0.94; with VX-702 + Bortezomib (first compound 0.6325 µM), 0.796; in the assay with VX-702 + Bortezomib (first compound 2 µM), 0.937; with Dabrafenib + Tozasertib (first compound 0.003 µM), 0.29; in the assay with Dabrafenib + Tozasertib (first compound 0.009487 µM) it was 0.34. In addition, the relative viability was found to be 0.239 with Dabrafenib + Tozasertib (first compound 0.03 µM); 0.255 with Dabrafenib + Tozasertib (first compound 0.09487 µM); 0.258 with Dabrafenib + Tozasertib (first compound 0.3 µM); 1.02 in the assay with VX-702 + Foretinib (first compound 0.02 µM); 1.01 with VX-702 + Foretinib (first compound 0.2 µM); 1.13 in the assay with VX-702 + Foretinib (first compound 0.6325 µM). The relative viability with VX-702 + Foretinib (first compound 2 µM) is 1.2; in the assay with VX-702 + Linsitinib (first compound 0.02 µM), 1.01; in the assay with VX-702 + Linsitinib (first compound 0.2 µM), 0.959; in the assay with VX-702 + Linsitinib (first compound 0.6325 µM), 0.977; with VX-702 + Linsitinib (first compound 2 µM) it was 1.2.

NCI-H1355: the relative viability stood at 1.26 in the assay with VX-702 + Bortezomib (first compound 0.02 µM); 1.22 in the assay with VX-702 + Bortezomib (first compound 0.2 µM); 1.27 with VX-702 + Bortezomib (first compound 0.6325 µM); 1.26 with VX-702 + Bortezomib (first compound 2 µM); 0.677 with Dabrafenib + Tozasertib (first compound 0.009487 µM); 0.519 in the assay with Dabrafenib + Tozasertib (first compound 0.03 µM). Also, the relative viability was determined as 0.439 in the assay with Dabrafenib + Tozasertib (first compound 0.09487 µM); 0.577 with Dabrafenib + Tozasertib (first compound 0.3 µM); 0.931 with VX-702 + Foretinib (first compound 0.02 µM); 1.01 in the assay with VX-702 + Foretinib (first compound 0.2 µM); 0.923 with VX-702 + Foretinib (first compound 0.6325 µM); 1.01 in the assay with VX-702 + Foretinib (first compound 2 µM). Besides, the relative viability with VX-702 + Linsitinib (first compound 0.02 µM) turned out to be 0.76; in the assay with VX-702 + Linsitinib (first compound 0.2 µM) it was 0.802; with VX-702 + Linsitinib (first compound 0.6325 µM), 0.749; with VX-702 + Linsitinib (first compound 2 µM), 0.866.

Take NCI-H1437: the relative viability worked out at 0.592 with VX-702 + Bortezomib (first compound 0.02 µM); 0.631 in the assay with VX-702 + Bortezomib (first compound 0.2 µM); 0.587 with VX-702 + Bortezomib (first compound 0.6325 µM); 0.595 with VX-702 + Bortezomib (first compound 2 µM); 0.496 with Dabrafenib + Tozasertib (first compound 0.003 µM); 0.385 in the assay with Dabrafenib + Tozasertib (first compound 0.009487 µM). Besides, the relative viability with Dabrafenib + Tozasertib (first compound 0.03 µM) turned out to be 0.412; with Dabrafenib + Tozasertib (first compound 0.09487 µM) it was 0.409; with Dabrafenib + Tozasertib (first compound 0.3 µM), 0.416; with VX-702 + Foretinib (first compound 0.02 µM), 1.31; with VX-702 + Foretinib (first compound 0.2 µM) it was 1.3; in the assay with VX-702 + Foretinib (first compound 0.6325 µM), 1.35. For the same cell line, the relative viability in the assay with VX-702 + Foretinib (first compound 2 µM) came to 1.41; with VX-702 + Linsitinib (first compound 0.02 µM) it was 1.1; in the assay with VX-702 + Linsitinib (first compound 0.2 µM), 1.02; with VX-702 + Linsitinib (first compound 0.6325 µM), 1.09; in the assay with VX-702 + Linsitinib (first compound 2 µM) it was 1.3.

As to NCI-H1651, the relative viability in the assay with VX-702 + Bortezomib (first compound 0.02 µM) was found to be 0.958; with VX-702 + Bortezomib (first compound 0.2 µM) it was 0.96; with VX-702 + Bortezomib (first compound 0.6325 µM) it was 0.95; in the assay with VX-702 + Bortezomib (first compound 2 µM), 1.03; with Dabrafenib + Tozasertib (first compound 0.003 µM), 0.741; in the assay with Dabrafenib + Tozasertib (first compound 0.009487 µM), 0.763. Also, the relative viability came to 0.57 with Dabrafenib + Tozasertib (first compound 0.03 µM); 0.668 with Dabrafenib + Tozasertib (first compound 0.09487 µM); 0.679 with Dabrafenib + Tozasertib (first compound 0.3 µM); 0.814 with VX-702 + Foretinib (first compound 0.02 µM); 0.794 with VX-702 + Foretinib (first compound 0.2 µM); 0.824 in the assay with VX-702 + Foretinib (first compound 0.6325 µM). The relative viability stood at 0.803 with VX-702 + Foretinib (first compound 2 µM); 0.876 with VX-702 + Linsitinib (first compound 0.02 µM); 1.09 with VX-702 + Linsitinib (first compound 0.2 µM); 0.967 in the assay with VX-702 + Linsitinib (first compound 0.6325 µM); 1 with VX-702 + Linsitinib (first compound 2 µM).

Take NCI-H1666: the relative viability with VX-702 + Bortezomib (first compound 0.02 µM) worked out at 0.906; with VX-702 + Bortezomib (first compound 0.2 µM), 0.672; in the assay with VX-702 + Bortezomib (first compound 0.6325 µM), 0.989; in the assay with VX-702 + Bortezomib (first compound 2 µM), 0.606; with Dabrafenib + Tozasertib (first compound 0.003 µM) it was 0.562; in the assay with Dabrafenib + Tozasertib (first compound 0.009487 µM), 0.637. In addition, the relative viability amounted to 0.678 with Dabrafenib + Tozasertib (first compound 0.03 µM); 0.672 with Dabrafenib + Tozasertib (first compound 0.09487 µM); 0.672 with Dabrafenib + Tozasertib (first compound 0.3 µM); 0.992 in the assay with VX-702 + Foretinib (first compound 0.02 µM); 1.02 with VX-702 + Foretinib (first compound 0.6325 µM); 1.06 in the assay with VX-702 + Foretinib (first compound 2 µM). In addition, the relative viability is 0.878 in the assay with VX-702 + Linsitinib (first compound 0.02 µM), 0.86 with VX-702 + Linsitinib (first compound 0.2 µM), 0.747 with VX-702 + Linsitinib (first compound 0.6325 µM) and 0.855 in the assay with VX-702 + Linsitinib (first compound 2 µM).

Regarding NCI-H1734, the relative viability turned out to be 0.865 with VX-702 + Bortezomib (first compound 0.02 µM); 0.844 with VX-702 + Bortezomib (first compound 0.2 µM); 0.847 with VX-702 + Bortezomib (first compound 0.6325 µM); 0.738 in the assay with VX-702 + Bortezomib (first compound 2 µM); 0.248 with Dabrafenib + Tozasertib (first compound 0.009487 µM); 0.251 with Dabrafenib + Tozasertib (first compound 0.03 µM). The relative viability with Dabrafenib + Tozasertib (first compound 0.09487 µM) came to 0.312; in the assay with Dabrafenib + Tozasertib (first compound 0.3 µM), 0.271; with VX-702 + Foretinib (first compound 0.02 µM) it was 0.791; with VX-702 + Foretinib (first compound 0.2 µM), 0.729; with VX-702 + Foretinib (first compound 0.6325 µM), 0.704; with VX-702 + Foretinib (first compound 2 µM), 0.813. Besides, the relative viability in the assay with VX-702 + Linsitinib (first compound 0.02 µM) was found to be 0.977; with VX-702 + Linsitinib (first compound 0.2 µM), 0.769; with VX-702 + Linsitinib (first compound 0.6325 µM), 0.794; with VX-702 + Linsitinib (first compound 2 µM), 0.763.

Take NCI-H1755: the relative viability with VX-702 + Bortezomib (first compound 0.02 µM) was found to be 0.964; in the assay with VX-702 + Bortezomib (first compound 0.2 µM) it was 0.911; with VX-702 + Bortezomib (first compound 0.6325 µM), 1.07; with VX-702 + Bortezomib (first compound 2 µM) it was 0.979; with Dabrafenib + Tozasertib (first compound 0.003 µM) it was 0.555; with Dabrafenib + Tozasertib (first compound 0.009487 µM), 0.659. The relative viability with Dabrafenib + Tozasertib (first compound 0.03 µM) came to 0.539; in the assay with Dabrafenib + Tozasertib (first compound 0.09487 µM) it was 0.559; in the assay with Dabrafenib + Tozasertib (first compound 0.3 µM), 0.614; with VX-702 + Foretinib (first compound 0.02 µM) it was 0.93; with VX-702 + Foretinib (first compound 0.2 µM), 0.952; in the assay with VX-702 + Foretinib (first compound 0.6325 µM), 0.807. Also, the relative viability in the assay with VX-702 + Foretinib (first compound 2 µM) amounted to 0.944; with VX-702 + Linsitinib (first compound 0.02 µM), 1.02; in the assay with VX-702 + Linsitinib (first compound 0.2 µM), 0.967; in the assay with VX-702 + Linsitinib (first compound 0.6325 µM) it was 1.01; in the assay with VX-702 + Linsitinib (first compound 2 µM), 0.725.

With NCI-H1915, the relative viability with VX-702 + Bortezomib (first compound 0.02 µM) is 1.06; in the assay with VX-702 + Bortezomib (first compound 0.2 µM), 0.893; with VX-702 + Bortezomib (first compound 0.6325 µM) it was 0.991; with VX-702 + Bortezomib (first compound 2 µM), 1.01; with Dabrafenib + Tozasertib (first compound 0.003 µM), 0.46; in the assay with Dabrafenib + Tozasertib (first compound 0.009487 µM) it was 0.458. Besides, the relative viability with Dabrafenib + Tozasertib (first compound 0.03 µM) stood at 0.391; with Dabrafenib + Tozasertib (first compound 0.09487 µM) it was 0.328; in the assay with Dabrafenib + Tozasertib (first compound 0.3 µM), 0.41; with VX-702 + Foretinib (first compound 0.02 µM), 1.1; with VX-702 + Foretinib (first compound 0.2 µM) it was 1.06; in the assay with VX-702 + Foretinib (first compound 0.6325 µM) it was 1.06. Moreover, the relative viability with VX-702 + Foretinib (first compound 2 µM) is 1.17; with VX-702 + Linsitinib (first compound 0.02 µM), 1.11; with VX-702 + Linsitinib (first compound 0.2 µM), 1.14; with VX-702 + Linsitinib (first compound 0.6325 µM), 1.08; with VX-702 + Linsitinib (first compound 2 µM) it was 1.08.
